Data on four compounds can be found in patent publication US6737428B2, “BIS hydrochloride monohydrate salt of RSV fusion inhibitor” (Bristol-Myers Squibb Company, priority 2001, dated 2004).

pEC50: −log10 of the molar value. Like-named read-outs stand apart in the source and are kept apart here.

Data set [1] relates to respiratory syncytial virus Long strain. The experiment in a line: Antiviral activity against respiratory syncytial virus in HEp-2 cells (MTT cell protection). Type of data set: cell-based. To be noted: for pEC50: human respiratory syncytial virus, read-out: EC50 (concentration that produces 50% cell protection). The method, then: The antiviral activity of these compounds against respiratory syncytial virus was determined in HEp-2 (ATCC CCL 23) cells that were seeded in 96 well microtiter plates at 1.5×10^4 cells/100 μL/well in DMEM (Dulbecco's Modified Eagle's Medium) supplemented with penicillin, streptomycin, glutamine, and 10% fetal bovine serum. The cells were incubated overnight at 37° C., the culture medium was removed, and cells were infected (100 μL volume in medium containing 2% fetal bovine serum) with respiratory syncytial virus Long strain at 5000 plaque forming units/mL. The compounds, 100 μL at appropriate dilution, were added to the cells 1 hour post infection. After incubation for 4 days at 37° C., the plates were stained with MTT solution (3-[4,5-dimethlythiazol-2-yl]-2,5-diphenyltetrazolium bromide) and incubated for 4 hours at 37° C. The media was aspirated from the cells and 100 μL/well of acidified isopropanol (per liter: 900 mL isopropanol, 100 mL Triton X100, and 4 mL conc. HCl) was added. Plates were incubated for 15 minutes at room temperature with shaking, and an optical density (OD 540) reading at 540 nanometer (nm) was obtained. The optical density reading is proportional to the number of viable cells. The increase in the number of viable cells reflects the protective, antiviral activity of the compound. Assays comparing MTT staining in uninfected cells containing compound with uninfected cells in the absence of compound provide a measure of cellular toxicity.
The antiviral activity of compounds, designated as EC50, is presented as a concentration that produces 50% cell protection in the assay. […]

For data set [2] the following is noted: acid used as salt former; cited from earlier work.

For `NC(=O)c1ncn([C@@H]2O[C@H](CO)[C@@H](O)[C@H]2O)n1` [Ribavirin], in data set [1] (at 2.5 μg/mL (corresponding to 10.2 μM)), the cell protection was found to be 100%. Moreover, in data set [1] (96 h, HEp-2 cells, RSV Long strain, 4 days, MTT), the pEC50 was 5.52.
For the compound `O=c1n(Cc2nc3ccccc3n2CCCCO)c2cnccc2n1C1CC1` [compound II], the pEC50 in data set [1] (HEp-2, 96 h) was 7.22.
On to `O=C(O)/C=C\C(=O)O` [maleic acid], for which the “first pKa” value in data set [2] is given as ~2.
With `O=C(O)/C=C/C(=O)O` [fumaric acid], in data set [2], the “first pKa” value is recorded as ~3.
